Assay results: paper PMC3481155, “AhR activation underlies the CYP1A autoinduction by A-998679 in rats” (Frontiers in Genetics, 2012)

Tests used:
AhR [1] = molecular target: T1, AhR (Homo sapiens, UniProt P35869); experiment: AhR nuclear translocation assay in HepG2 cells; type: cell-based; settings: 2 μM
T1 construct: endogenous in cells; host or cells: HepG2
T1 sequence (P35869 11-848): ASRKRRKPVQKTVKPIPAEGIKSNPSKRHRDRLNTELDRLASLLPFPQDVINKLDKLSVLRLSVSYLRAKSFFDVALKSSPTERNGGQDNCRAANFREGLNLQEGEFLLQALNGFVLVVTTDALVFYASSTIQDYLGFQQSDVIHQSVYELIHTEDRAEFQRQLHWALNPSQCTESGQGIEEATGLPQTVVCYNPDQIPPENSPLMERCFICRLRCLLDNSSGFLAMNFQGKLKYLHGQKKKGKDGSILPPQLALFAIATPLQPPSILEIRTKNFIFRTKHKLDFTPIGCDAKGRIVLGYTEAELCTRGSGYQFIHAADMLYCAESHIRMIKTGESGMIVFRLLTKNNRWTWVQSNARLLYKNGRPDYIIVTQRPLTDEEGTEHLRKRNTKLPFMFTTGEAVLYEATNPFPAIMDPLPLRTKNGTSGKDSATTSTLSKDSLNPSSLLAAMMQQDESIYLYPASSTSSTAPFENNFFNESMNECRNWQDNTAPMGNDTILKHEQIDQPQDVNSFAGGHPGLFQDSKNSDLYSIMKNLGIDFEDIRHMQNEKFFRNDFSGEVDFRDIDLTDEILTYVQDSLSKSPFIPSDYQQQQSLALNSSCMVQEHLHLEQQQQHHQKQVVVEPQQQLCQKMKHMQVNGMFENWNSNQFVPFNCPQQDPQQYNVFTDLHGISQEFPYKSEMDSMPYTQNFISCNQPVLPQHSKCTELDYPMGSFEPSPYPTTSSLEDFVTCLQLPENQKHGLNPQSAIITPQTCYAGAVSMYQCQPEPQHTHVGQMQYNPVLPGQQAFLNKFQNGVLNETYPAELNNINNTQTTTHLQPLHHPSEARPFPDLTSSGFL
Protocol: HepG2 cells were plated in Lab-Tek II Chamber slides (Nalgene, Rochester, NY) at a seeding density of 50,000 cells/well. The cells were allowed to attach overnight and were treated for 2 h or 24 h with 10 or 40 μM A-998679, 2 μM 3-methylchloranthrene (3-MC) as a positive control, or 0.1% (v/v) DMSO vehicle. The cells were fixed in fresh 3% paraformaldehyde solution in PBS followed by a PBS wash, and were then permeabilized for 5 min using 0.2% Triton X-100 in PBS followed by another PBS wash. The cells were then incubated with blocking buffer consisting of 1% BSA/PBS solutions and immediately incubated with a 1:50 dilution of rabbit polyclonal antibody to AhR (Abcam, Cambridge, MA catalog# 63636) for 1 h at 37°C. Cells were then washed with PBS, re-blocked for 10 min, and stained with an Alexa 546 donkey anti-rabbit secondary antibody (diluted 1:200; Invitrogen Life Technologies) for 45 min at 37°C. The cells were then washed with PBS, stained with 0.5 μM Hoescht solution for 15 min, and again washed with PBS. The chamber slides were sealed and examined under the microscope. Images were acquired with a SPOT RT SE digital camera (Diagnostic Instruments, Sterling Heights, MI) mounted on a Leica (Wetzlar, Germany) DMIRE inverted florescence microscope using a 20× objective. Image acquisition was done using Metamorph® software (Molecular Devices, Sunnyvale, CA) and percent translocation of the AhR probe was quantitated using MetaXpress (Molecular Devices). Twenty microscope fields were evaluated per well (~3000–6000 cells/well).

[2] = molecular target: T2, aryl hydrocarbon receptor (AhR) (Homo sapiens, UniProt P35869); experiment: AhR luciferase reporter assay in HepG2 cells; type: cell-based
T2 construct: endogenous in cells; host or cells: HepG2
T2 sequence (P35869 11-848): T1 sequence (P35869 11-848)
Protocol: HepG2 cells were transiently transfected overnight with the construct (1200 bp portion of the human CYP1A1 promoter region containing 2 copies of the functional consensus sequence for the DRE in luc2P luciferase vector (SwitchGear Genomics cat# 114555, Menlo Park, CA) using lipofectin (Invitrogen Life Technologies) at 500 ng construct per million cells. Following transfection, the cells were replated in a 96-well format and dosed for 24 h with 0.1% (v/v) DMSO vehicle, 3-MC at 0.05, 0.1, 0.5, 1, 5, 10 μM, and A-998679 at 1.5625, 3.125, 6.25, 12.5, 25, and 50 μM. Luminescence signal was generated using the Dual-Luciferase Reporter Assay System (Promega, Madison, WI) and detected with a Tecan Genios Pro reader (Männedorf, Switzerland).

AhR [3] = tested on: AhR; set-up: method as in Nguyen and Bradfield, 2008; Mitchell and Elferink, 2009; settings: ref Nguyen and Bradfield, 2008, Mitchell and Elferink, 2009; cited from earlier work
AhR [4] = tested on: AhR; set-up: method as in Jinno et al., 2006; settings: ref Jinno et al., 2006, read-out: reporter assay EC50; cited from earlier work

SMILES: Cc1ccc2cc3c(ccc4ccccc43)c3c2c1CC3 [3MC, 3-methylcholanthrene, reference compound]
- AhR nuclear staining (% positive cells) 2 h (AhR [1]; 2 h, vehicle 15.6): 26.3 % positive cells
- AhR nuclear staining (% positive cells) 24 h (AhR [1]; 24 h, vehicle 3.4): 11.1 % positive cells
- potency to activate AhR relative to A-998679 ([2]; luciferase reporter): ~ 8 fold
- EC50 ([2]; luciferase reporter with human DRE construct, 24 h, read-out: EC50, activation of AhR signaling): 2.1 µM
- maximal increase over vehicle ([2]; luciferase reporter, 24 h): 97 fold

SMILES: Clc1cc2c(cc1Cl)Oc1cc(Cl)c(Cl)cc1O2 [TCDD, 2,3,7,8-Tetrachlorodibenzo-p-dioxin]
- binding EC50 (AhR [3]): ~ pM to nM range

SMILES: C[C@]12CCc3c(ccc4cc(O)ccc34)[C@@H]1CCC2=O [equilenin]
- EC50 (AhR [4]): ~10 µM
